Holding throughout (type): functional, cell-based
Assay [1] deals with HT-29. Briefly: Cytotoxicity against human HT-29 cells.
Assay [2] relates to A549. Briefly: Cytotoxicity against human A549 cells.
Assay [3] concerns HCT-8. The assay is described as follows: Cytotoxicity against human HCT8 cells.
For assay [4], the system named is P388. The assay is described as follows: Cytotoxicity against mouse P388 cells.

What is called IC50 is the midpoint of a concentration-inhibition curve.

Values after ≈ are worked out from the molar mass of the structure shown.

In the case of `CNc1nc2c(C)ccc3nc(N(C)C)nc-3c2n1C`, the IC50 in assay [1] was determined as 0.824 µg/mL (≈ 3.05 µM); in assay [2], 2.38 µg/mL (≈ 8.8 µM); in assay [3], 1.61 µg/mL (≈ 5.96 µM); in assay [4] it was 1.77 µg/mL (≈ 6.55 µM).
